Patent publication US8735398B2 (Bristol-Myers Squibb Company, priority 2009, dated 2014)
pEC50: −log10 of the molar value.

System: HCV 1b genotype
Assay: HCV replicon assay (HCV-neo replicon cells, wild-type)
Format: cell-based, Hepatitis C virus
Details: Hepatitis C virus, HCV 1b genotype replicon; class symbol; read-out: EC50 Range against HCV 1b
Summary of the method: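 Inhibition was tested in replicon-bearing cells, both wild-type HCV-neo and lines with NS5A resistance substitutions, using the O'Boyle et al. 2005 replicon method or luciferase-reporter formats.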

Compared with O=C(Nc1ccc(-c2cc(-c3ccc(NC(=O)[C@@H]4CCCN4C(=O)C4CCC4)cc3)[nH]n2)cc1)[C@@H]1CCCN1C(=O)C1CCC1 [OL-33, (2S,2′S)-N,N′-(1H-pyrazole-3,5-diyldi-4,1-phenylene)bis(1-(cyclobutylcarbonyl)-2-pyrrolidinecarboxamide)], CC(=O)N1CCC[C@H]1C(=O)Nc1ccc(-c2cc(-c3ccc(NC(=O)[C@@H]4CCCN4C(C)=O)cc3)[nH]n2)cc1 [OL-29, (2S,2′S)-N,N′-(1H-pyrazole-3,5-diyldi-4,1-phenylene)bis(1-acetyl-2-pyrrolidinecarboxamide)] is lower in pEC50: 6.00 to 7.00 for the first, 5.00 to 6.00 for the second.

First: O=C(Nc1ccc(-c2cnc(-c3ccc(NC(=O)[C@@H]4CCCN4C(=O)C(O)c4ccccn4)cc3)o2)cc1)[C@@H]1CCCN1C(=O)C(O)c1ccccn1 (stereo partly drawn) [Example D-14, (2S,2′S)-N,N′-(1,3-oxazole-2,5-diyldi-4,1-phenylene)bis(1-(hydroxy(2-pyridinyl)acetyl)-2-pyrrolidinecarboxamide)]
Second: CN(C)C(C(=O)N1CCC[C@H]1C(=O)Nc1ccc(-c2cnc(-c3ccc(NC(=O)[C@@H]4CCCN4C(=O)C(c4ccc(F)cc4F)N(C)C)cc3)o2)cc1)c1ccc(F)cc1F (stereo partly drawn) [Example D-5, (2S,2′S)-N,N′-(2,5-oxazolediyldi-4,1-phenylene)bis[1-[(2,4-difluorophenyl)(dimethylamino)acetyl]-2-pyrrolidinecarboxamide]]
The pEC50 of the first is lower: 6.00 to 7.00 for the first, greater than 8.34 for the second. The second is the more potent here.

Compared with CN(C)CC(Oc1ccc(Cl)cc1)C(=O)N1CCC[C@H]1C(=O)Nc1ccc(-c2cnc(-c3ccc(NC(=O)[C@@H]4CCCN4C(=O)C(CN(C)C)Oc4ccc(Cl)cc4)cc3)o2)cc1 (stereo partly drawn) [Example D-19, (2S,2′S)-N,N′-(1,3-oxazole-2,5-diyldi-4,1-phenylene)bis(1-(2-(4-chlorophenoxy)-3-(dimethylamino)propanoyl)-2-pyrrolidinecarboxamide)], CC(=O)N1CCC[C@H]1C(=O)Nc1ccc(-c2cnc(-c3ccc(NC(=O)[C@@H]4C=CCN4C(=O)c4ccno4)cc3)o2)cc1 [Example D-3, (2S)-N-[4-[5-[4-[[[(2S)-1-acetyl-2-pyrrolidinyl]carbonyl]amino]phenyl]-2-oxazolyl]phenyl]-2,5-dihydro-1-(5-isoxazolylcarbonyl)-1H-pyrrole-2-carboxamide] is lower in pEC50: 6.00 to 7.00 for the first, 5.00 to 6.00 for the second. The first is the more potent here.

First: C[C@@](O)(C(=O)N1CCC[C@H]1C(=O)Nc1ccc(-c2nc[nH]c2-c2ccc(NC(=O)[C@@H]3CCCN3C(=O)[C@@](C)(O)c3ccccc3)cc2)cc1)c1ccccc1 [JG-46, (2S,2′S)-N,N′-(1H-imidazole-4,5-diyldi-4,1-phenylene)bis(1-((2S)-2-hydroxy-2-phenylpropanoyl)-2-pyrrolidinecarboxamide)]
Second: CSCC[C@H](NC(=O)Cc1ccccc1)C(=O)Nc1ccc(-c2cnc(-c3ccc(NC(=O)[C@H](CCSC)NC(=O)Cc4ccccc4)cc3)o2)cc1 [JG-13, (2S,2′S)-N,N′-(1,3-oxazole-2,5-diyldi-4,1-phenylene)bis(4-(methylsulfanyl)-2-((phenylacetyl)amino)butanamide)]
The pEC50 of the first is higher: greater than 8.34 for the first, 6.00 to 7.00 for the second. The first is the more potent here.

Same assay, conditions: Hepatitis C virus, HCV 1b genotype replicon; class symbols; read-out: EC50 Range against HCV 1b

First: O=C(Nc1ccc(-c2cnc(-c3ccc(NC(=O)[C@@H]4CCCN4C(=O)C(O)Cc4cccnc4)cc3)o2)cc1)[C@@H]1CCCN1C(=O)C(O)Cc1cccnc1 (stereo partly drawn) [JR-4, (2S,2′S)-N,N′-(2,5-oxazolediyldi-4,1-phenylene)bis[1-[2-hydroxy-1-oxo-3-(3-pyridinyl)propyl]-2-pyrrolidinecarboxamide]]
Second: Cc1cc(CC(=O)N2C[C@H](OC(C)(C)C)C[C@H]2C(=O)Nc2ccc(-c3cnc(-c4ccc(NC(=O)[C@@H]5C[C@@H](OC(C)(C)C)CN5C(=O)Cc5cc(C)no5)cc4)o3)cc2)on1 [XY-70, (2S,4R,2′S,4′R)-N,N′-(1,3-oxazole-2,5-diyldi-4,1-phenylene)bis(4-tert-butoxy-1-((3-methyl-5-isoxazolyl)acetyl)-2-pyrrolidinecarboxamide)]
The pEC50 of the first is lower: 5.00 to 6.00 for the first, 7.00 to 8.34 for the second. The second is the more potent here.

Same assay, conditions: Hepatitis C virus, HCV 1b genotype replicon; read-out: EC50 1b

CC(=O)N1CCC[C@H]1C(=O)Nc1ccc(-c2cc(-c3ccc(NC(=O)[C@@H]4CCCN4C(C)=O)cc3)[nH]n2)cc1 [OL-29, (2S,2′S)-N,N′-(1H-pyrazole-3,5-diyldi-4,1-phenylene)bis(1-acetyl-2-pyrrolidinecarboxamide)] was tested, and the pEC50 was 5.34.
